Test results reported in patent US11312676B2, “Small molecule stimulators of steroid receptor coactivator proteins and their use in the treatment of cancer” (BAYLOR COLLEGE OF MEDICINE, priority 2014, dated 2022).

Columns and labels:
SRC-3 = target: T1, SRC-3 (Homo sapiens, UniProt Q9Y6Q9); experiment: Gal4 luciferase reporter assay (pBIND-SRC-3 + pG5-LUC) in HeLa cells; type: cell-based
T1 construct: expressed in transfected cells; host or cells: HeLa
Experimental: (§1) The constructs expressing the Gal4 responsive luciferase reporter (pG5-luc), Gal4 DBD fusion with SRC-1, […] (pBIND-SRC-1/-2/-3), MMP2 or MMP13 promoter driven luciferase reporter (MMP2-luc, MMP13-luc) were prepared. Twenty-four hours before transfection, HeLa cells were plated in 24-well dishes. The indicated expression plasmids were transfected into cells using Lipofectamine 2000 according to the manufacturer's instructions.
(§2) After various compound treatments, cells were lysed in luciferase lysis buffer and assayed for luciferase activity using the ONE-Glo luciferase assay system (Promega, Madison, Wis.). All luciferase activities were normalized to protein concentration determined by Bradford assay (Bio-Rad, Hercules, Calif.).
HeLa cells were transfected with a Gal4 responsive luciferase reporter (pG5-luc) and a construct encoding SRC-1, SRC-2 or SRC-3 fused with the DNA binding domain of Gal4 (pBIND-SRC-1, pBIND-SRC-2 or pBIND-SRC-3) were treated with the indicated compounds.

PGC-1α = experiment: Gal4-PGC-1α + pG5-LUC luciferase assay in HeLa cells; type: cell-based; conditions: 24 hours, 2-10 μM
MMP2 promoter = experiment: MMP2-luc reporter with SRC-3 expression vector in HeLa cells; type: cell-based; conditions: 24 hours
Experimental: as §1, §2

MMP13 promoter = experiment: MMP13-luc reporter with SRC-3 expression vector in HeLa cells; type: cell-based; conditions: 24 hours
Experimental: as §1, §2

[1] = target: T2, basic helix-loop-helix (bHLH) domain of SRC-3 (Homo sapiens, UniProt Q9Y6Q9); experiment: Fluorescence spectroscopy, intrinsic fluorescence of GST SRC-3 bHLH; type: binding; conditions: 1.5 μM GST SRC-3 bHLH
T2 construct: MCB-613 also affected the fluorescence of the basic helix-loop-helix (bHLH) domain; made in house
Experimental: (§3) Fluorescence spectrometric measurements were performed on a SLM 48000S fluorescence spectrophotometer (SLM-Aminco, Rochester, N.Y.) and an Agilent Cary Eclipse Fluorescence spectrophotometer (Agilent Technologies, Inc., Santa Clara, Calif.) using the GST fusion proteins of different portions of SRC-3 expressed and purified. A total of 1.5 μM of GST SRC-3 RID, CID or bHLH was placed in a fluorescence cuvette and excited by UV light at a wavelength of 278 nm with a 2 nm bandwidth and the emission spectra were recorded from 290 nm to above 500 nm with a bandwidth of 4 nm. The aliquot size of test compound was maintained below 5% of the total sample volume in order to minimize the effects of dilution.

[2] = target: T3, CBP interacting domain (CID) of SRC-3 (Homo sapiens, UniProt Q9Y6Q9); experiment: Fluorescence spectroscopy, intrinsic fluorescence quenching of GST SRC-3 CID; type: binding; conditions: 1.5 μM GST SRC-3 CID
T3 construct: made in house
Experimental: as §3

MCF-7 (breast) cells = experiment: MTS cell viability assay, MCF-7; type: cell-based; conditions: MCF-7, 48 hours
Experimental: (§4) Cell lines were maintained in DMEM (HeLa, MCF-7, HepG2), RPMI 1640 (H1299), or DMEM/F12 (PC-3) supplemented with 10% fetal calf serum, penicillin and streptomycin (100 U/ml). Primary mouse hepatocytes were isolated and cultured. Mouse embryonic fibroblasts (MEF) were cultured in DMEM. All cells were maintained at 37° C. under 5% CO2.
(§5) Cells were seeded in 96-well plates and allowed to reach 70% to 80% confluence. After indicated compound treatments, relative numbers of viable cells were measured by MTS assay using the Cell Titer 96 Aqueous One Solution Cell Proliferation Assay (Promega).

PC-3 (prostate) cells = experiment: MTS cell viability assay, PC-3; type: cell-based; conditions: PC-3, 48 hours
Experimental: as §4, §5

H1299 (lung) cells = experiment: MTS cell viability assay, H1299; type: cell-based; conditions: H1299, 48 hours
Experimental: as §4, §5

HepG2 (liver) cells = experiment: MTS cell viability assay, HepG2; type: cell-based; conditions: HepG2, 48 hours
Experimental: as §4, §5

[3] = test system: mouse primary hepatocytes; experiment: MTS cell viability assay, mouse primary hepatocytes; type: cell-based; conditions: 48 hours
Experimental: as §4, §5

[4] = test system: MCF-7 breast cancer xenograft; experiment: MCF-7 xenograft tumor model; type: in vivo; conditions: 20 mg/kg i.p. three times a week
Experimental: Twenty 6-8 week-old athymic nude female mice were obtained from Harlan. Two days before cancer cell injection, one estradiol pellet was embedded under the skin for each mouse and a new pellet was added twice at a one month interval. Following this, 1×10^6 MCF-7 cells […] mixed with equal volume of growth factor reduced matrigel (BD Biosciences) were injected into the fat pad of each of the 2nd pair mammary gland without clearing. The MCB-613 treatment which lasted for seven weeks was started approximately seven weeks after the cell injection when tumor sizes reached above 5 mm in diameter. Ten mice received MCB-613 (20 mg/kg) in saline by i.p. injection, whereas the control group contained 10 mice which received saline only. The compound was injected three times a week. The mice were weighed once a week and tumors were measured twice a week during the treatment period.
To further evaluate the anti-cancer potential of MCB-613, a MCF-7 breast cancer mouse xenograft model was employed to assess the tumor suppressive effects of MCB-613 in vivo. Tumors were established in athymic nude mice seven weeks after injection of MCF-7 cells into […] mammary fat pads. An MCB-613 treated group (n=10) received i.p. injection of the compound (20 mg/kg) three times a week, while a control group (n=10) was injected with a saline vehicle.

[5] = test system: human pediatric GBM tumor; experiment: Patient derived xenograft pediatric GBM model, survival; type: in vivo; conditions: treated every day for 14 days, tumor cells in mouse brainstem
Experimental: A tumor from a human patient was transferred directly into a mouse host (patient derived xenograft) without culturing on a plastic substrate. Tumor cells (50,000) were injected into mouse brainstems and allowed to proliferate for 14 days. Animals were treated every day with either MCB-613 (test group) or vehicle (control group) for 14 days. The animals were then housed with no further experimental manipulation. Overall survival was recorded from the experimental and control groups.

HeLa cells = experiment: Cytoplasmic vacuolization of cancer cells; type: cell-based; conditions: HeLa, MCF-7 or MDA-MB-231 cells
MMP13 expression = experiment: qRT-PCR of endogenous MMP13 in MDA-MB-231 cells; type: cell-based; conditions: 24 hours
SRC-1 = SRC-1 (Homo sapiens, UniProt Q15788); experiment: Gal4 luciferase reporter assay (pBIND-SRC-1 + pG5-LUC) in HeLa cells; type: cell-based; parameters: expressed in transfected cells; host or cells: HeLa; conditions: 24-hour treatment, 5-8 μM, maximum over SRC-1/-2/-3
Experimental: as §1, §2

T1 sequence (Q9Y6Q9 whole entry, the tested form may be a part): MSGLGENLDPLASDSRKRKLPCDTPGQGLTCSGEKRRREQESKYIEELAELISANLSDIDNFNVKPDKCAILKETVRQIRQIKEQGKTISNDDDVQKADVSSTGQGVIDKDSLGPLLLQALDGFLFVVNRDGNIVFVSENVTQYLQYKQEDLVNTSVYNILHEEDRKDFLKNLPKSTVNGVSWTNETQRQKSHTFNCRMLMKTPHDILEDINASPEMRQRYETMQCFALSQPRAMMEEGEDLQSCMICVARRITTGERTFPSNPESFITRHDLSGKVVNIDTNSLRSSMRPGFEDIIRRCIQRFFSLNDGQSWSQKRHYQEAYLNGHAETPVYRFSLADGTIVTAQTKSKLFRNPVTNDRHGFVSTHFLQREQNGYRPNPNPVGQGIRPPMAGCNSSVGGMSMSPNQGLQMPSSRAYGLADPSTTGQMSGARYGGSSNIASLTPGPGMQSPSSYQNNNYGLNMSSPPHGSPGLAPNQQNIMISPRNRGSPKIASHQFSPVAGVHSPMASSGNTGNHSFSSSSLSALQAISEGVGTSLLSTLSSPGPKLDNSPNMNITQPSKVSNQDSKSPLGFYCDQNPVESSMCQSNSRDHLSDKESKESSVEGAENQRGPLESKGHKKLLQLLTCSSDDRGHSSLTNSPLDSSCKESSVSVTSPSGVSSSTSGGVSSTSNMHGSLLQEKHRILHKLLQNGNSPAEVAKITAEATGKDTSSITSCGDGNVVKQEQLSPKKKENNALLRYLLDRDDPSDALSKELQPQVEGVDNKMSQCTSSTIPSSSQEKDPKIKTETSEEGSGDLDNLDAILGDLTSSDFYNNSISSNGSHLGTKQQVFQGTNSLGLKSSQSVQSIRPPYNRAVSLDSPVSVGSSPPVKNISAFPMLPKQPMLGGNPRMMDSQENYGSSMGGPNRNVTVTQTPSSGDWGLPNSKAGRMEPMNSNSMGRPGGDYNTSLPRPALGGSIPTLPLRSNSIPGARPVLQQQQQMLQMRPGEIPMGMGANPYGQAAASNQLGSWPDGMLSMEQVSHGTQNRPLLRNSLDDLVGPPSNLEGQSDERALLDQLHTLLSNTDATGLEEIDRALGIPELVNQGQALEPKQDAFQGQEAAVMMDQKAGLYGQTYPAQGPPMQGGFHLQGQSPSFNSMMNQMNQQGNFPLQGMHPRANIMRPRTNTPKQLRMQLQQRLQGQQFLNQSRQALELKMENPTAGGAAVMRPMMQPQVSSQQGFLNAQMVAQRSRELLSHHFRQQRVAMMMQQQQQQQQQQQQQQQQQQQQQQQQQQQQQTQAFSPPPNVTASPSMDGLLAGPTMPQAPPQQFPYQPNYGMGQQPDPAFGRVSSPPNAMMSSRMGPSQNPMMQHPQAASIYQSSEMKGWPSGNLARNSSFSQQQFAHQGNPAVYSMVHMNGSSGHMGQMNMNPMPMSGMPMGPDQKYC
T3 sequence (Q9Y6Q9 1023-1093 limits assumed): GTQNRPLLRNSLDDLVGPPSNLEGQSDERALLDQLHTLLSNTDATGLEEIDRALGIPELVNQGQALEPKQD
Sequence of SRC-1 (Q15788 whole entry, the tested form may be a part): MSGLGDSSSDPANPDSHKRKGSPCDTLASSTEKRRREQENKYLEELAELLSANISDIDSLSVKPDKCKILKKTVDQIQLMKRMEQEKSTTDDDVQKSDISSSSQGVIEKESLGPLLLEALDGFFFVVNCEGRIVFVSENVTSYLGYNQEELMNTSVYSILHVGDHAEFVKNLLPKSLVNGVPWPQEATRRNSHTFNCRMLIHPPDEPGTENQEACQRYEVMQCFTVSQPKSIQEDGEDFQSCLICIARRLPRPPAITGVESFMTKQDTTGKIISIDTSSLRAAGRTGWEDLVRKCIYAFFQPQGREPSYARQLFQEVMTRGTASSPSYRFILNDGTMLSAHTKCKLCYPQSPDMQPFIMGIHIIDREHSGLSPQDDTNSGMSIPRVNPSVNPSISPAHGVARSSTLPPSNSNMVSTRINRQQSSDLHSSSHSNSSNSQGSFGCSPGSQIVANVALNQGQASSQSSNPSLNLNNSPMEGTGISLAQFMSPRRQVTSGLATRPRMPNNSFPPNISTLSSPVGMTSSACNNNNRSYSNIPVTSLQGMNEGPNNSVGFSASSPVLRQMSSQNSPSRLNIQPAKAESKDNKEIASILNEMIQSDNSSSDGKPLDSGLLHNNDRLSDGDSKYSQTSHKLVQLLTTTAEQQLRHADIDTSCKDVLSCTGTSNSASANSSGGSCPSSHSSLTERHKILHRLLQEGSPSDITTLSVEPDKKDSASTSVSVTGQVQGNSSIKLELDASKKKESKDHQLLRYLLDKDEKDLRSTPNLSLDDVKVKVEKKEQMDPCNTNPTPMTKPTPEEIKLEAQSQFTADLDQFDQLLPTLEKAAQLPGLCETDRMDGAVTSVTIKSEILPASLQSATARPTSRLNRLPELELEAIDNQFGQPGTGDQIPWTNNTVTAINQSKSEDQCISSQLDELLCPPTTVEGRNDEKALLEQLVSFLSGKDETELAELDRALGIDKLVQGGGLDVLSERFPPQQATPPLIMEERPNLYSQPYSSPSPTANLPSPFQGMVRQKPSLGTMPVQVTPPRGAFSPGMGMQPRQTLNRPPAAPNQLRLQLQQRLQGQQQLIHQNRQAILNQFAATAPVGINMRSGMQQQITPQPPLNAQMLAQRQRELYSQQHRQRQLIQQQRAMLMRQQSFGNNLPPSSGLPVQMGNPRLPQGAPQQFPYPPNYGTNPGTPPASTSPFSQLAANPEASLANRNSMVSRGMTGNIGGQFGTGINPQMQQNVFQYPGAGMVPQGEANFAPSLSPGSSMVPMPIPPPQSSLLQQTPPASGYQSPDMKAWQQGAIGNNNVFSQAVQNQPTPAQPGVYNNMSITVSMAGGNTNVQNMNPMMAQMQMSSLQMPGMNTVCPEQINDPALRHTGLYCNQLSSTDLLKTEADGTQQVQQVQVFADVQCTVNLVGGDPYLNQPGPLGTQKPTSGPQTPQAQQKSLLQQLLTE
T2 sequence (Q9Y6Q9 25-82 limits assumed): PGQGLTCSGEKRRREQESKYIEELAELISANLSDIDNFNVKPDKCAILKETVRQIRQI

CCC1CC(=Cc2cccnc2)C(=O)C(=Cc2cccnc2)C1 (stereo not shown) [MCB-613, 4-Ethyl-2,6-bis-pyridin-3-ylmethylene-cyclohexanone]
induction in the activity of pBIND-SRC-3 (SRC-3; 24-hour treatment, 5-8 μM, maximum over SRC-1/-2/-3): ≤ 160 fold
SRC activity after 4 hours of treatment (SRC-3; 4 hours, 6-10 μM): significant increase
stimulation of GAL4-PGC-1α coactivator fusion protein (PGC-1α): failing to stimulate
SRC-3's coactivation of the MMP2 promoter (MMP2 promoter): greatly enhanced
SRC-3's coactivation of the MMP13 promoter (MMP13 promoter): greatly enhanced
concentration affecting the fluorescence of the bHLH domain [1]: 2 µM
concentration required to detect fluorescence quenching of the CID [2]: at least 20 μM
cytotoxicity, cell viability (MCF-7 (breast) cells): efficiently kill
cytotoxicity, cell viability (PC-3 (prostate) cells): efficiently kill
cytotoxicity, cell viability (H1299 (lung) cells): efficiently kill
cytotoxicity, cell viability (HepG2 (liver) cells): efficiently kill
cytotoxicity to normal cells [3]: resistant
animal toxicity ([4]; 7 weeks): did not lead to obvious animal toxicity
body weights between control and treated groups ([4]; 7 weeks): identical
tumor volumes versus controls ([4]; after one week of treatment and throughout): significantly smaller than controls
overall survival [5]: extends survival time
vacuolization in cancer cells (HeLa cells): induced extensive vacuolization
endogenous MMP13 expression (MMP13 expression): activated
induction in the activity of pBIND-SRC-1 (SRC-1): ≤ 160 fold
